Assay [1] deals with T1, RXRα (Homo sapiens, UniProt P19793).
T1 sequence (P19793 1-462): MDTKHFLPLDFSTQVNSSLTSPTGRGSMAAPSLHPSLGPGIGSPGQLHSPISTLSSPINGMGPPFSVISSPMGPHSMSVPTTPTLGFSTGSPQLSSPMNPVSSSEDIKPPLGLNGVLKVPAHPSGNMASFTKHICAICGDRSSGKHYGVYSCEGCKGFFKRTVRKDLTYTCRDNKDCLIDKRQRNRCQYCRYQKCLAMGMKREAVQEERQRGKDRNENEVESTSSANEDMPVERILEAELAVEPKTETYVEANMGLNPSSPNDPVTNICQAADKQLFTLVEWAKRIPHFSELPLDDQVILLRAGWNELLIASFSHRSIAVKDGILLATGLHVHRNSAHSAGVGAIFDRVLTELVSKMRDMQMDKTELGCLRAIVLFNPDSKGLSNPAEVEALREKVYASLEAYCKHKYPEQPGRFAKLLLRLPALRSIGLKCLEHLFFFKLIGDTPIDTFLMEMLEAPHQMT
The assay is described as follows: Retinoid activation assay, RXRα (Schneider SL-3 cells, luciferase reporter). Type of assay: cell-based. The note with it: read-out: Activation EC50 RXR α. The procedure:
(§1) Full length RXR cDNA is used for transfection. As reporter system, the luciferase gene is used in a construct with three copies of a RXR response element from rat CRBP gene, (formerly RARE from betaRAR gene), fused to alcoholdehydrogenase gene promoter in the plasmid pGL2-basic. Schneider SL-3 cells from Drosophila are transiently transfected 3-4 h before the experiment by the Ca-phosphate-DNA coprecipitation method. […] At the end of the incubation, the cell supernatants are assayed for luciferase activity. Results are given as EC50 (nM), the concentration leading to half-maximal activation.

Another assay concerns the target T2, PPARγ/RXRα Heterodimer (Homo sapiens, UniProt P19793).
T2 construct: co-transfected with plasmids expressing the full length RXR heteropartner receptor; expressed in transfected cells
T2 sequence (P19793 1-462): T1 sequence (P19793 1-462)
T2 sequence (P37231 1-505 partner): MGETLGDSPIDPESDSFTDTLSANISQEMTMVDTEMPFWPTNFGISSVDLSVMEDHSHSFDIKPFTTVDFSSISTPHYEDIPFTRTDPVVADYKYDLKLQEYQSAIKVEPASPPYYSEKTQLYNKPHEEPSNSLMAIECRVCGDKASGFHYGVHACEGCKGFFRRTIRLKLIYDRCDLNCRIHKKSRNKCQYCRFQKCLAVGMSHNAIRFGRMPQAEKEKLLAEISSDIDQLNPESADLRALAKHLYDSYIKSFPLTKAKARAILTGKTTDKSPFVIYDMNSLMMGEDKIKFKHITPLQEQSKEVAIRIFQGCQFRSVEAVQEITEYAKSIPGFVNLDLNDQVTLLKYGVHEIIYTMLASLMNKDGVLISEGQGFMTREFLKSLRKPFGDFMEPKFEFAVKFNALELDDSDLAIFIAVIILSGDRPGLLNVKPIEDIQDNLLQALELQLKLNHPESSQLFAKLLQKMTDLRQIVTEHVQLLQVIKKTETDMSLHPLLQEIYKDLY
The assay is described as follows: PPARγ/RXRα heterodimer activation (transactivation) assay. Type of assay: cell-based. The source says: (§2) Nuclear hormone receptor (NHR) ligand dependent transcriptional transactivation assay.
Heterodimer reporter assays are potentially more important selection criteria for synthetic agonistic NHR ligands as they embody a more natural situation. Basically plasmids expressing the recombinant full length NHR are co-transfected with plasmids expressing the full length RXR heteropartner receptor and a reporter plasmid containing several copies of the natural responsive elements for the respective NHR driving the luciferase reporter gene.

Another assay concerns the target T3, RXRα Homodimer (Homo sapiens, UniProt P19793).
T3 construct: expressed in transfected cells; host or cells: mammalian cells (BHK21, CV1, etc)
T3 sequence (P19793 1-462): T1 sequence (P19793 1-462)
The assay is described as follows: RXRα homodimer activation (transactivation) assay. Type of assay: cell-based.
From the text: as §2
This secondary in vitro functional assay to characterize hits from the primary ligand binding screens is a GAL4-LBD transactivation assay. The Gal4-LBD protein consists of an in frame fusion of the transcription factor galactose 4 DNA binding domain from S.cerevisiae with the ligand binding domain (LBD) of a particular NHR. Briefly, a plasmid construct expressing the recombinant chimeric receptor is co-transfected into mammalian cells (BHK21, CV1, etc) with a luciferase reporter plasmid containing several copies in tandem of the GAL4 binding sites (promoter recognition elements) upstream from the minimal promoter driving the luciferase gene. The transfected cells are treated with compounds for 12-24 hours, lysates are produced and assayed for luciferase activity and normalized to internal standards such as GH, growth hormone or SEAP, secreted alkaline phosphatase. Ligand binding stabilizes the LBD conformation that recruits endogenous co-factors that mediate eventually the increased transcriptional activity of the luciferase reporter gene. By comparing the activation profile of a reference ligand or a natural ligand, the EC50 values for agonistic activity of a particular ligand can be measured. The extent of activation that can be measured is indicative of a partial, respectively full agonistic activity of a ligand. […]

Assay [2] concerns the target T1, RXRα. The assay is described as follows: Retinoid binding assay, RXRα. Set-up: made in house; host or cells: E. coli. To be noted: [3H] 9-cis retinoic acid 20 nM; read-out: Binding Affinity IC50 RXR α. The text has this:
(§3) The DEF domains of RAR's and the full length RXR's, expressed in E.coli, are used to measure competitive retinoid binding. […] 9-cis retinoic acid (for RXR's), respectively. […] Separation of bound from free radioactivity is achieved by charcoal/dextran (RAR's) or by desalting columns (RXR's). […] Retinoid Activation Assays

Assay [3] deals with T4, RXRγ (Homo sapiens, UniProt P48443).
T4 sequence (P48443 1-463): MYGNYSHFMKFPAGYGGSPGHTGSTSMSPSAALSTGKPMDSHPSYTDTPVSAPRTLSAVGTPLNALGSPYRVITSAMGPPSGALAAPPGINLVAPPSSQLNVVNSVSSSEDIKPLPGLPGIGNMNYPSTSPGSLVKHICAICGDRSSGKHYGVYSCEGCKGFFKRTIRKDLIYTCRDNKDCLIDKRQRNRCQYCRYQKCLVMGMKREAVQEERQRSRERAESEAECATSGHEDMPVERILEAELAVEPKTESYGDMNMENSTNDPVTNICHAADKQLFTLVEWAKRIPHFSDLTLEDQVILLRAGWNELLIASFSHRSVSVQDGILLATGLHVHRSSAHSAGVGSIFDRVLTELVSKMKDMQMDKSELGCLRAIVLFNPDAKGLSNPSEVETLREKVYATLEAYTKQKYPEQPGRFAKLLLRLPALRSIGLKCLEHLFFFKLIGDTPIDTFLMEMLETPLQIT
As to the kind of experiment: Retinoid activation assay, RXRγ (Schneider SL-3 cells, luciferase reporter). The note with it: read-out: Activation EC50 RXR γ. In kind it is cell-based. The procedure:
as §1
On the technique in general: In a reporter assay the amount or activity of a reporter protein is the signal.

Assay [4] deals with T4, RXRγ. As to the kind of experiment: Retinoid binding assay, RXRγ. Set-up: made in house; host or cells: E. coli. To be noted: [3H] 9-cis retinoic acid 20 nM; read-out: Binding Affinity IC50 RXR γ.
From the text: as §3

Another assay concerns db/db mice. The assay is described as follows: Investigation with db/db mice (blood glucose and lipids). In kind it is in vivo, mouse. The note with it: for Glucose Diff. D o − D 12 / HDL-cholesterol Diff. D o − D 12 / Total cholesterol Diff. D o − D 12 / Triglycerides Diff. D o − D 12: change day 0 to day 12; for Glucose D o / HDL-cholesterol D o / Total cholesterol D o / Triglycerides D o: day 0; for HDL-cholesterol D 12 / Total cholesterol D 12 / Triglycerides D 12 / Glucose D 12: day 12; for Glucose D-4 / HDL-cholesterol D-4 / Total cholesterol D-4 / Triglycerides D-4: day −4. The method, then: The following compounds are investigated and compared to placebo (vehicle control).
The mentioned 3 compounds are tested in db/db mice during a time when diabetes is in a rapid developing stage. […] Each dosage group and the vehicle group comprise 7 mice. The suspensions used are prepared with peroxide free arachis oil as vehicle. Blood samples are collected by retro-orbital bleeding at days −4, 0 and 12. The blood levels of glucose, triglycerides, total cholesterol, and HDL-cholesterol are determined.
For evaluation of efficacy, the difference between the values of glucose, triglycerides, total cholesterol and HDL-cholesterol changing from day 0 to day 12 is determined and expressed in %. […] Overall evaluation consists in determining the efficacy of the compounds by calculating the whole extent of the effect expressed in %. […] This value is considered as a valuable indicator for the efficacy of the investigated compounds administered in a tolerated dose.

The mark [5] stands for this setting: 30 mg/kg/day group versus vehicle group.

Structures are written as SMILES.

With `CCCOc1c([C@@H]2C[C@@H]2/C=C/C(C)=C/C(=O)O)cc(C(C)(C)C)cc1C(C)(C)C` (racemic) [Compound 20, (2E,4E)-5-[2-(3,5-Di-tert-butyl-2-propoxy-phenyl)-cyclopropyl]-3-methyl-penta-2,4-dienoic acid], the EC50 (in general, the concentration needed to bring the measured effect to its halfway point) is at least 10000 nM on RXRα [1], above 10000 nM on PPARγ/RXRα Heterodimer, above 10000 nM at RXRα Homodimer and at least 10000 nM on RXRγ [3]. Further, the results for the IC50 on RXRα [2] and at RXRγ [4] were 52 nM and 71 nM, respectively.
On to `CCCCCCCOc1c(\C(C)=C/C=C/C(C)=C/C(=O)O)cc(C(C)C)cc1C(C)C` [Compound 19, (2E,4E,6Z)-7-(2-Heptyloxy-3,5-diisopropyl-phenyl)-3-methyl-octa-2,4,6-trienoic acid], for which the results for the EC50 at RXRα [1], on PPARγ/RXRα Heterodimer and at RXRα Homodimer were at least 10000 nM, above 10000 nM and above 10000 nM, respectively. Besides, the results for the IC50 at RXRα [2] and on RXRγ [4] were 9 nM and 19 nM, respectively.
As for `C=C(c1ccc(C(=O)O)cc1)c1cc2c(cc1C)C(C)(C)CCC2(C)C` [Compound 2, 4-[1-(5,6,7,8-tetrahydro-3,5,5,8,8-pentamethyl-2-naphthalenyl)ethenyl]benzoic acid, reference compound], in the assay with db/db mice (0.3 mg/kg/day i.p.), the “Glucose Diff. D o − D 12” value is reported as “+54.0%”, the “HDL-cholesterol Diff. D o − D 12” value was −11.8%, the “Total cholesterol Diff. D o − D 12” value is −12.3% and the “Triglycerides Diff. D o − D 12” value was −4.0%. Also, in the assay with db/db mice (0.3 mg/kg/day i.p.), the “Glucose D o” value was found to be 189 mg/dL, the “HDL-cholesterol D o” value was determined as 2.71 mmol/L, the “Total cholesterol D o” value is 3.99 mmol/L and the “Triglycerides D o” value was determined as 1.98 mmol/L. Further, in the assay on db/db mice (0.3 mg/kg/day i.p.), the “HDL-cholesterol D 12” value came out at 2.39 mmol/L, the “Total cholesterol D 12” value stood at 3.50 mmol/L, the “Triglycerides D 12” value came out at 1.90 mmol/L and the “Glucose D-4” value is 144 mg/dL. Further, in the assay with db/db mice (0.3 mg/kg/day i.p.), the “HDL-cholesterol D-4” value amounted to 2.48 mmol/L, the “Total cholesterol D-4” value came to 3.96 mmol/L and the “Triglycerides D-4” value came out at 1.65 mmol/L. In addition, in the assay with db/db mice (3 mg/kg/day), the “Glucose levels (in words)” value is given as “no significant change”, the “HDL-cholesterol levels (in words)” value is given as “not influenced” and the “Triglyceride levels (in words)” value is reported as “hardly influenced”. Also, in the assay on db/db mice (3.0 mg/kg/day i.p.), the “Glucose Diff. D o − D 12” value is recorded as “+30.4%”, the “HDL-cholesterol Diff. D o − D 12” value is −8.3%, the “Total cholesterol Diff. D o − D 12” value is given as −25.4% and the “Triglycerides Diff. D o − D 12” value is −24.8%. In addition, in the assay on db/db mice (3.0 mg/kg/day i.p.), the “Glucose D o” value turned out to be 175 mg/dL, the “HDL-cholesterol D o” value is 2.77 mmol/L, the “Total cholesterol D o” value is 4.65 mmol/L and the “Triglycerides D o” value was 2.01 mmol/L. In the assay on db/db mice (3.0 mg/kg/day i.p.), the “Glucose D 12” value is 229 mg/dL, the “HDL-cholesterol D 12” value turned out to be 2.54 mmol/L, the “Total cholesterol D 12” value is 3.47 mmol/L and the “Triglycerides D 12” value amounted to 1.51 mmol/L. In the assay with db/db mice (3.0 mg/kg/day i.p.), the “Glucose D-4” value stood at 169 mg/dL, the “HDL-cholesterol D-4” value turned out to be 2.66 mmol/L, the “Total cholesterol D-4” value was found to be 4.48 mmol/L and the “Triglycerides D-4” value is 1.97 mmol/L. For the same molecule, in the assay on db/db mice (30 mg/kg/day), the “Glucose levels (in words)” value was “only hardly influenced”, the “HDL-cholesterol levels (in words)” value is recorded as “decreased”, the “Total cholesterol levels (in words)” value is reported as “slightly lower” and the “Triglyceride levels (in words)” value is “even raises triglyceride levels”. Moreover, in the assay on db/db mice (setting [5]), the “Overall extent of the effect on blood levels of Glucose” value is recorded as “+5.6%”, the “Overall extent of the effect on blood levels of HDL-cholesterol” value was −17.8%, the “Overall extent of the effect on blood levels of Total cholesterol” value is reported as −13.0% and the “Overall extent of the effect on blood levels of Triglycerides” value is reported as “+18.3%”. Also, in the assay on db/db mice (30 mg/kg/day i.p.), the “Glucose Diff. D o − D 12” value is “+54.8%”, the “HDL-cholesterol Diff. D o − D 12” value is −21.6%, the “Total cholesterol Diff. D o − D 12” value was −21.8% and the “Triglycerides Diff. D o − D 12” value is on record as “+40.4%”. Besides, in the assay on db/db mice (30 mg/kg/day i.p.), the “Glucose D o” value was found to be 155 mg/dL, the “HDL-cholesterol D o” value amounted to 3.10 mmol/L, the “Total cholesterol D o” value is 4.31 mmol/L and the “Triglycerides D o” value was 1.61 mmol/L. In the assay with db/db mice (30 mg/kg/day i.p.), the “Glucose D 12” value came out at 240 mg/dL, the “HDL-cholesterol D 12” value turned out to be 2.43 mmol/L, the “Total cholesterol D 12” value is 3.37 mmol/L and the “Triglycerides D 12” value is 2.26 mmol/L. Further, in the assay with db/db mice (30 mg/kg/day i.p.), the “Glucose D-4” value came out at 128 mg/dL, the “HDL-cholesterol D-4” value is 2.74 mmol/L, the “Total cholesterol D-4” value is 4.24 mmol/L and the “Triglycerides D-4” value amounted to 1.75 mmol/L.
